Molecular target: T1, human TREM2 (Homo sapiens, UniProt Q9NZC2)
T1 construct: expressed in transfected cells; host or cells: HEK293T
Test: TREM2 agonist potency by cellular phosphorylation of Syk (AlphaLisa) in HEK293T-hTREM2 cells
Format: cell-based
Outline: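 Agonist EC50 from a variable-slope four-parameter fit of % activation, based on AlphaLisa phospho-Syk levels in lysates. Cells: HEK293T-hTREM2 (with DAP12), treated 45 min at room temperature with compound in assay buffer.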

[1] = HEK293 cells expressing human TREM2 and DAP12, Table D-2
[2] = HEK293 cells expressing human TREM2 and DAP12, Table D

T1 sequence (Q9NZC2 19-230): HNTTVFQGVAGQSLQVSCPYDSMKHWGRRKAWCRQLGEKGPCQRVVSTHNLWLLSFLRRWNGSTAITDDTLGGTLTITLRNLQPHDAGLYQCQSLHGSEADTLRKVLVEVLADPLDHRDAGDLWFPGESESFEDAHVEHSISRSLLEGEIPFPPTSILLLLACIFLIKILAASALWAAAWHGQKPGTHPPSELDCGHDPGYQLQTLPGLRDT
T1 sequence (O43914 22-113 partner): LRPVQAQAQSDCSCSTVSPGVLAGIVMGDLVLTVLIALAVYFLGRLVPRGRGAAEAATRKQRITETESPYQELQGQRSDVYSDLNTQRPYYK

Compound | EC50 [1] [nM] | EC50 [2] [nM]
Cc1nc2nc(N3C[C@@H](c4cnn(C(F)F)c4)O[C@@H](C4CC4)C3)nc(-c3ccc(F)cc3F)c2nc1C (stereo in doubt) [Example I-1701, (2S,6R)-2-cyclopropyl-6-[1-(difluoromethyl)pyrazol-4-yl]-4-[4-(2,4-difluorophenyl)-6,7-dimethyl-pteridin-2-yl]morpholine] | < 50 | 
COc1ncccc1[C@@H]1C[C@H](c2nc(-c3ccc(F)cc3F)c3nc(C)c(C)nc3n2)CCO1 [Example 160, 4-(2,4-difluorophenyl)-2-((2S,4R)-2-(2-methoxypyridin-3-yl)tetrahydro-2H-pyran-4-yl)-6,7-dimethylpteridine] |  | 50 to 500
Cc1nc2cc([C@H]3CCO[C@@H](c4cnn(C5CC5)c4)C3)nc(-c3ccc(C(F)(F)F)cc3F)c2nc1C(F)(F)F [Example I-1562] | 50 to 500 | 
Cc1nc2nc([C@H]3CCO[C@@H](c4cnn(C5CC5)c4)C3)nc(C3C[C@@H](F)[C@@H](F)C3)c2nc1C (stereo partly drawn) [Example 245, 2-((2R,4S)-2-(1-cyclopropyl-1H-pyrazol-4-yl)tetrahydro-2H-pyran-4-yl)-4-((3R,4S)-3,4-difluorocyclopentyl)-6,7-dimethylpteridine] |  | 500 to 3000
CC(=O)OCc1nc2c(-c3ccc(F)cc3F)nc([C@@H]3CCO[C@@H](c4cnn(C5CC5)c4)C3)cc2nc1C [Example 246, (7-((2R,4R)-2-(1-cyclopropyl-1H-pyrazol-4-yl)tetrahydro-2H-pyran-4-yl)-5-(2,4-difluorophenyl)-2-methylpyrido[3,4-b]pyrazin-3-yl)methylacetate] |  | 3000 to 100000
COc1cccc([C@@H]2C[C@H](c3nc(C45CC(C(F)(F)F)(C4)C5)c4nc(C)c(C)nc4n3)CCO2)n1 [Example 145, 2-[ (2S,4R)-2-(6-methoxy-2-pyridyl)tetrahydropyran-4-yl] - 6,7-dimethyl-4-[3-(trifluoromethyl)-1-bicyclo[1.1.1]pentanyl]pteridine] |  | 500 to 3000
Cc1cc([C@H]2C[C@@H](c3nc(-c4ccc(C(F)(F)F)nc4)c4nc(C)c(C)nc4n3)CCO2)ccn1 (racemic) [Example 4, 6,7-dimethyl-2-((2R,4S)-2-(2-methylpyridin-4-yl)tetrahydro-2H-pyran-4-yl)-4-(6-(trifluoromethyl)pyridin-3-yl)pteridine] |  | 50 to 500
Cc1nc2nc(N3C[C@@H](c4cnn(C(F)F)c4)O[C@@H](C4CC4)C3)nc(-c3ccc(C(F)(F)F)cc3F)c2nc1C [Example I-1712, (2S,6R)-2-cyclopropyl-6-[1-(difluoromethyl)pyrazol-4-yl]-4-[4-[2-fluoro-4-(trifluoromethyl)phenyl]-6,7-dimethyl-pteridin-2-yl]morpholine] | 50 to 500 | 
[2H][C@@]1(c2cnn(C3CC3)c2)C[C@H](c2nc(-c3ccc(F)cc3F)c3nc(C)c(C)nc3n2)CCO1 (single isomer, unassigned) [Example 183] |  | 3000 to 100000
COc1nc2c(-c3ccc(C(F)(F)F)cc3F)nc([C@H]3CCO[C@@H](c4cnn(C5CC5)c4)C3)nc2nc1C (stereo in doubt) [Example I-1691, 2-((2R,4S)-2-(1-cyclopropyl-1H-pyrazol-4-yl)tetrahydro-2H-pyran-4-yl)-4-(2-fluoro-4-(trifluoromethyl)phenyl)-6-methoxy-7-methylpteridine] | < 50 | 
[2H]C([2H])([2H])n1cc([C@H]2C[C@@H](c3nc(-c4ccc(F)cc4F)c4nc(C)c(C)nc4n3)CCO2)cn1 [Example 156] |  | 50 to 500
Cc1nc2nc([C@H]3CCO[C@@H](c4cnn(C5CC5)c4)C3)nc(-c3ccc(F)cc3F)c2nc1C1CCCCC1 [Example I-1744, 6-cyclohexyl-2-((2R,4S)-2-(1-cyclopropyl-1H-pyrazol-4-yl)tetrahydro-2H-pyran-4-yl)-4-(2,4-difluorophenyl)-7-methylpteridine] | 50 to 500 | 
Cc1nc2nc([C@H]3CCO[C@@H](c4cnn(CC5CC5)c4)C3)nc(-c3ccc(C(F)(F)F)cc3F)c2nc1C [Example I-1577, 2-[(2R,4S)-2-[1-(cyclopropylmethyl)pyrazol-4-yl]tetrahydropyran-4-yl]-4-[2-fluoro-4-(trifluoromethyl)phenyl]-6,7-dimethyl-pteridine] | < 50 | 
COc1ncccc1[C@H]1C[C@@H](c2nc(C34CC(C(F)(F)F)(C3)C4)c3nc(C)c(C)nc3n2)CCO1 [Example 144, 2-((2R,4S)-2-(2-methoxypyridin-3-yl)tetrahydro-2H-pyran-4-yl)-6,7-dimethyl-4-(3-(trifluoromethyl)bicyclo[1.1.1]pentan-1-yl)pteridine] |  | 50 to 500
Cc1nc2nc([C@@H]3CCO[C@H](c4ccc(=O)n(C)c4)C3)nc(-c3ccc(F)cc3F)c2nc1C [Example 200] |  | < 50
COCn1cc([C@H]2CN(c3nc(-c4ccc(F)cc4F)c4cc(C)c(C)nc4n3)C[C@@H](C)O2)cn1 [Example I-1226, (2S,6R)-4-[4-(2,4-difluorophenyl)-6,7-dimethyl-pyrido[2,3-d]pyrimidin-2-yl]-2-[1-(methoxymethyl)pyrazol-4-yl]-6-methyl-morpholine] | < 50 | 
Cc1nc2cc([C@H]3CCO[C@@H](c4cnn(C5CC5)c4)C3)nc(-c3ccc(F)cc3F)c2nc1C [Example 210, 7-((2R,4S)-2-(1-cyclopropyl-1H-pyrazol-4-yl)tetrahydro-2H-pyran-4-yl)-5-(2,4-difluorophenyl)-2,3-dimethylpyrido[3,4-b]pyrazine] |  | < 50
Cc1cc2c(-c3ccc(F)cc3F)cc([C@H]3CCO[C@@H](c4cnn(C5CC5)c4)C3)nc2nc1C [Example 232] |  | < 50
Cc1cc([C@@H]2C[C@H](c3nc(-c4ccc(Cl)c(F)c4F)c4ncc(C)nc4n3)CCO2)ccn1 [Example 131, 4-(4-chloro-2,3-difluorophenyl)-7-methyl-2-((2S,4R)-2-(2-methylpyridin-4-yl)tetrahydro-2H-pyran-4-yl)pteridine] |  | 500 to 3000
CCCc1ccc(-c2nc([C@H]3CCO[C@@H](c4cnn(C5CC5)c4)C3)nc3nc(C)c(C)nc23)c(F)c1 [Example I-1197] | 50 to 500 | 
